Patent US20070009571A1, “Novel haptotactic peptides” (Hadasit Medical Research Services & Development Ltd., priority 1998, published 2007)
No end group written: not given here.

B1: γ chain: isolated γ chain of fibrinogen (protein, UniProt P02679 27-453, looked up)
Fibrinogen gamma chain: YVATRDNCCILDERFGSYCPTTCGIADFLSTYQTKVDKDLQSLEDILHQVENKTSEVKQLIKAIQLTYNPDESSKPNMIDAATLKSRKMLEEIMKYEASILTHDSSIRYLQEIYNSNNQKIVNLKEKVAQLEAQCQEPCKDTVQIHDITGKDCQDIANKGAKQSGLYFIKPLKANQQFLVYCEIDGSGNGWTVFQKRLDGSVDFKKNWIQYKEGFGHLSPTGTTEFWLGNEKIHLISTQSAIPYALRVELEDWNGRTSTADYAMFKVGPEADKYRLTYAYFAGGDAGDAFDGFDFGDDPSDKFFTSHNGMQFSTWDNDNDKFEGNCAEQDGSGWWMNKCHAGHLNGVYYQGGTYSKASTPNGYDNGIIWATWKTRWYSMKKTTMKIIPFNRLTIGEGQQHHLGGAKQVRPEHPAETEYDSLYPEDDL
modifications: Fibrinogen gamma chain
notes: isolated γ chain of fibrinogen

Columns and labels:
human fibroblasts (HF) = experiment: Uptake of FITC-peptides by fluorescence microscopy; format: cell-based; set-up: binding and internalization of dissolved FITC-peptide, fluorescent microscopy: dose or concentration left out as unconfirmed
Protocol: (§1) The cells examined were grown in 6-well plates on cover slips to reach near confluence. At the time of examination, the cover slips were inverted and put on a microscope slide supported by 2 thin spacers so that a thin gap (˜2 mm) was left between the cells on the coverslip and the slide. This was filled with culture medium. […] At different time points, medium was replaced with fresh medium and the fluorescence was viewed and photographed, using an Olympus fluorescent microscope system.
(§2) Accumulation of the FITC-peptide in the cytoplasm and around the nucleus was clearly observed. […] After a longer exposure of more than 1 hour or with fixed cells, accumulation of the FITC-peptide in the cytoplasm and around the nucleus was clearly observed (data not shown). In most cases, the fluorescence became concentrated in discrete cytoplasmic vesicles.

EC cells (BAEC) = experiment: FACS analysis of binding of FITC-labeled peptides; format: cell-based, bovine; conditions: 10 μg/ml or 100 μg/ml, medium with 0.1% albumin
Protocol: EC and HF cell monolayers were washed and then incubated with trypsin-versene. Cells were then washed with growth medium and resuspended in medium with 0.1% albumin. FITC-labeled peptide-Cβ (SEQ ID NO:1) was incubated with 5×10^5 EC cells (10 μg/ml or 100 μg/ml) or with 2.5×10^5 HF cells (100 μg/ml) in medium with 0.1% albumin. FITC-labeled peptide-CαE (SEQ ID NO:3) and Cα (SEQ ID NO:4) (10 μg/ml) was incubated with 5×10^5 EC cells in medium with 0.1% albumin. Cells were then washed with PBS and 1% albumin. Cells were resuspended in PBS and 1% albumin and then filtered through a mesh for FACS analysis, in which the FITC tluorescence was measured for each cell.
The control is without FITC-labeled peptide (background fluorescence).
In competition experiments, cells were incubated with various concentrations of unlabeled Cβ (SEQ ID NO:1) for 15 mins, an aliquot of Cβ^FITC (4 mM) was added and the sample was subjected to FACS analysis. […] The Cβ^FITC (SEQ ID NO:1) uptake experiments best fitted a linear-quadratic curve-fit.

EC (BAEC) = experiment: Uptake of FITC-peptides by fluorescence microscopy; format: cell-based, bovine; conditions: 100 μg/ml, 30 min and 60 min
Protocol: as §1, §2

human fibroblasts = conditions: isolated constituent chains of fibrinogen; Gray et al. 1993; cited from earlier work

| Molecule | uptake of FITC-peptide by fluoro-microscopy (human fibroblasts (HF); 10 μM, human fibroblasts) | binding and internalization of dissolved FITC-peptide, fluorescent microscopy (human fibroblasts (HF); HF, 30 min and 60 min) | binding/uptake of FITC-labeled peptide by FACS, in words (EC cells (BAEC)) | binding and internalization of dissolved FITC-peptide, fluorescent microscopy (EC (BAEC)) | stimulation of fibroblast proliferation above controls (human fibroblasts) |
| --- | --- | --- | --- | --- | --- |
| FITC-CαE: FITC-labeled peptide CαE (SEQ ID NO:3) (RGADYSLRAVRMKIRPLVTQ; not fully specified (N-terminus); also: FITC label, position not given here) | uptake | binding and internalization | taken up by cells | binding and internalization | – |
| B1 | – | – | – | – | no effect |
